Data from ChEMBL document CHEMBL4177599, “The antitubercular activity of various nitro(triazole/imidazole)-based compounds” (Bioorg Med Chem, 2017).
≈ marks a conversion by molar mass, not a printed value.

Tests used:
[1] = test system: Mycobacterium tuberculosis; test: Antitubercular activity against Mycobacterium tuberculosis H37Rv ATCC 27294 after 5 days under aerobic condition; format: functional, organism-based; conditions: for IC50 / IC90 / MIC: H37Rv ATCC 27294, 120 h; for Activity: TDE = time-dependent effect
[2] = Solubility of compound in Middlebrook 7H9 broth media at pH 6.4 at 200 uM after 90 mins by UV-VIS spectrophotometric method; format: physicochemical; conditions: buffer, pH 6.4, 1.5 h
[3] = test system: Mycobacterium tuberculosis; test: Antitubercular activity against Mycobacterium tuberculosis H37Rv ATCC 27294 after 10 days under low oxygen condition followed by incubation under aerobic condition for 28 hrs by LORA; format: functional, organism-based
[4] = test system: Mycobacterium tuberculosis; test: Bactericidal activity against Mycobacterium tuberculosis H37Rv ATCC 27294 assessed as concentration required for 2 log kill after 21 days under aerobic condition by colony forming assay; format: functional; conditions: for MBC: H37Rv ATCC 27294, 504 h; for Activity: TDE = time-dependent effect
THP-1 = test: Cytotoxicity against human THP1 cells after 3 days by luminescence assay; format: cell-based; conditions: THP-1, 72 h
[5] = test system: Mycobacterium tuberculosis; test: Antitubercular activity against luxABCDE expressing Mycobacterium tuberculosis H37Rv infected in human THP1 cells measured after 3 days by luminescence assay; format: functional, organism-based; conditions: THP-1, 72 h
Vero = test: Cytotoxicity against African green monkey Vero cells after 2 days by CellTiter-Glo luminescent cell viability assay; format: ADME, cell-based; conditions: Chlorocebus sabaeus, 48 h
[6] = test system: Mycobacterium tuberculosis; test: Antitubercular activity against luxABCDE expressing Mycobacterium tuberculosis H37Rv infected in mouse J774 macrophages assessed as log reduction in bacterial colonies at 20 uM measured after 4 days under aerobic condition by luminescence assay; format: functional
[7] = Protein binding in human plasma at 5 uM after 4 hrs by LC-MS/MS analysis
[8] = Half life in human liver S9 microsomes at 1 uM in presence of NADPH by LC-MS/MS analysis
[9] = Half life in human liver S9 microsomes at 1 uM in absence of NADPH by LC-MS/MS analysis
HepG2 = test: Cytotoxicity against human HepG2 cells at 100 uM after 3 days by CellTiter-Glo luminescent cell viability assay; format: cell-based; conditions: HepG2, 72 h
in vitro [10] = conditions: human, Caco-2
Description: Apparent permeability of the compound across apical side to basolateral side in human Caco2 cells monolayer at 10 uM after 2 hrs by LC-MS/MS analysis

in vitro [11] = conditions: human, Caco-2; remark: listed apart in the source
Description: Apparent permeability of the compound across basolateral side to apical side in human Caco2 cells monolayer at 10 uM after 2 hrs by LC-MS/MS analysis

in vitro [12] = conditions: human, Caco-2; remark: listed apart in the source
Description: Efflux ratio of apparent permeability from basolateral to apical over apical to basolateral side in human Caco2 cells monolayer at 10 uM after 2 hrs by LC-MS/MS analysis

[13] = test system: Mycobacterium tuberculosis; test: Potency index, ratio of compound MIC to metronidazole MIC for antitubercular activity against Mycobacterium tuberculosis H37Rv ATCC 27294 under low oxygen condition; format: functional
L6 = test: Cytotoxicity against rat L6 cells after 2 days by CellTiter-Glo luminescent cell viability assay; format: ADME, cell-based; conditions: L6, 48 h
[14] = test system: Mycobacterium tuberculosis; test: Antitubercular activity against luxABCDE expressing Mycobacterium tuberculosis H37Rv infected in mouse J774 macrophages assessed as log reduction in bacterial colonies at 200 uM measured after 4 days under aerobic condition by luminescence assay; format: functional

Compound	IC50 [1]	IC90 [1]	MIC [1]	IC50 [3]	IC90 [3]	MIC [3]	MBC [4]	IC50 (THP-1)	IC50 [5]	IC90 [5]	also measured
O=C(CCn1cnc([N+](=O)[O-])n1)Nc1cc(-c2ccc(F)cc2)on1	66 µM	> 100 µM	> 200 µM								
O=C(CCCN1CCC(O)(c2ccc(Cl)cc2)CC1)c1ccc(F)cc1 [HALOPERIDOL]											solubility [2]: Insoluble
Cc1ncc([N+](=O)[O-])n1CCO [METRONIDAZOLE]	> 200 µM	> 200 µM	> 200 µM	14 to 36 µM	33 to 82 µM	88 to 200 µM (≈ 15.1 to 34.2 µg/mL)					
Cc1nc([N+](=O)[O-])cn1CCCNC(=O)c1cc2ccccc2s1	> 200 µM	> 200 µM	> 200 µM								solubility [2]: Soluble
COCCc1ccc(OCC(O)CNC(C)C)cc1.COCCc1ccc(OCC(O)CNC(C)C)cc1.O=C(O)/C=C/C(=O)O (racemic) [METOPROLOL FUMARATE]											solubility [2]: Soluble
Cc1nc([N+](=O)[O-])cn1CCCNC(=O)c1sc2ccccc2c1Cl	175 µM	> 200 µM	> 200 µM								solubility [2]: Soluble
O=C(Cn1cnc([N+](=O)[O-])n1)Nc1ccc(Cc2ccccc2)cc1	30 µM	38 µM	45 µM (≈ 15.2 µg/mL)	39 µM	59 µM	94 µM (≈ 31.7 µg/mL)	20 µM (≈ 6.75 µg/mL)	47 µM	6.2 µM	12 µM	
O=C(Cn1ccnc1[N+](=O)[O-])Nc1ccc(Oc2ccc(F)cc2)cc1	44 µM	89 µM	80 µM (≈ 28.5 µg/mL)	17 µM	31 µM	61 µM (≈ 21.7 µg/mL)	100 µM (≈ 35.6 µg/mL)				IC50 (Vero): 56 µM; log(activity) [6]: 2.2
O=C(Cn1cnc([N+](=O)[O-])n1)Nc1cc(-c2ccc(Cl)cc2)no1	96 µM	140 µM	200 µM (≈ 69.7 µg/mL)								
O=C(Cn1cnc([N+](=O)[O-])n1)Nc1ccc(N2CCCCC2)cc1	29 µM	46 µM	48 µM (≈ 15.9 µg/mL)	99 µM	110 µM	120 µM (≈ 39.6 µg/mL)	20 µM (≈ 6.61 µg/mL)	> 50 µM	11 µM	25 µM	fraction unbound at 4 h, 5 µM [7]: 0.233; half-life at 1 µM [8]: 2.68 h; half-life at 1 µM [9]: > 3 h; IC50 (HepG2): > 100 µM; Papp A→B at 2 h, 10 µM (in vitro [10]): 38.4 ×10⁻⁶ cm/s; Papp B→A at 2 h, 10 µM (in vitro [11]): 27 ×10⁻⁶ cm/s; efflux ratio at 2 h, 10 µM (in vitro [12]): 0.7
O=C(Cn1cnc([N+](=O)[O-])n1)N1CCN(Cc2ccc(C(F)(F)F)cc2)CC1	25 µM	28 µM	27 µM (≈ 10.8 µg/mL)	62 µM	100 µM	170 µM (≈ 67.7 µg/mL)	20 µM (≈ 7.97 µg/mL)	> 50 µM	13 µM	14 µM	fraction unbound at 4 h, 5 µM [7]: 0.179; half-life at 1 µM [8]: > 3 h; half-life at 1 µM [9]: > 3 h; IC50 (HepG2): > 100 µM
O=C(CCn1cnc([N+](=O)[O-])n1)Nc1ccc(Oc2ccc(F)cc2)cc1	22 to 25 µM	28 to 34 µM	31 to 32 µM (≈ 11.5 to 11.9 µg/mL)	25 µM	28 µM	31 µM (≈ 11.5 µg/mL)	20 µM (≈ 7.43 µg/mL)	21 µM	3.8 µM	16 µM	Activity [1]: Tde; Activity [4]: Tde; Ratio [13]: 6 - 9; IC50 (L6): 23 µM
O=C(Cn1cnc([N+](=O)[O-])n1)Nc1cccc(-c2ccccc2)c1	27 µM	39 µM	31 µM (≈ 10 µg/mL)	30 µM	46 µM	73 µM (≈ 23.6 µg/mL)	20 µM (≈ 6.47 µg/mL)	> 50 µM	11 µM	12 µM	fraction unbound at 4 h, 5 µM [7]: 0.028; half-life at 1 µM [9]: 1.32 h; IC50 (HepG2): 46 µM
O=C(Cn1ccnc1[N+](=O)[O-])Nc1ccc(Oc2ccccc2)cc1	60 µM	90 µM	98 µM (≈ 33.2 µg/mL)	14 µM	71 µM	> 200 µM	100 µM (≈ 33.8 µg/mL)				IC50 (Vero): 98 µM; IC50 (L6): 63 µM; log(activity) [14]: 2.7
O=C(CCn1cnc([N+](=O)[O-])n1)Nc1ccc(Oc2ccc(Cl)cc2)cc1	15 to 22 µM	22 to 24 µM	24 to 26 µM (≈ 9.31 to 10.1 µg/mL)	25 µM	27 µM	30 µM (≈ 11.6 µg/mL)	20 µM (≈ 7.76 µg/mL)	14 µM	3.4 µM	10 µM	Activity [1]: Tde; Activity [4]: Tde; Ratio [13]: 6 - 9; IC50 (L6): 17 µM
